Among the test systems are A498 renal; ACHN renal; HS 578T breast; M14 melanoma; MDA-MB-231 breast; NCI-H460 lung; OVCAR-4 ovarian; OVCAR-8 ovarian; SK-MEL-2 melanoma; SNB-75 CNS.
What all share (assay): DTP human tumour cell line panel, 48 h

This note sets out measurements from PubChem BioAssay (NCI).

A word on the GI50: it is the concentration that inhibits growth by half. As usually defined, the TGI is the concentration at which net growth stops. Higher therefore signals less potent growth arrest.

SMILES strings stand for the structures.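 48-hour exposure; five concentrations; linearly interpolated endpoints. Here, GI50 denotes the concentration required for 50% inhibition of growth. TGI denotes the concentration required for complete inhibition of growth.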

As to `CC(C)(C)OC(=O)n1c(Cl)c(C(=O)N=C=S)c2ccccc21`, the GI50 in the assay on A498 renal was 92.6 µM; in the assay on ACHN renal, 29.5 µM; in the assay on HS 578T breast, 25.5 µM; with M14 melanoma it was more than 100 µM; in the assay with MDA-MB-231 breast it was 15.7 µM; with NCI-H460 lung, 39.6 µM. The GI50 is more than 100 µM in the assay on OVCAR-4 ovarian, 23.3 µM with OVCAR-8 ovarian, 24.7 µM with SK-MEL-2 melanoma and more than 100 µM with SNB-75 CNS. Also, the total growth inhibition concentration (TGI) is more than 100 µM in the assay with A498 renal; more than 100 µM with ACHN renal; 68.2 µM in the assay on HS 578T breast; more than 100 µM with M14 melanoma; 46 µM with MDA-MB-231 breast; more than 100 µM in the assay on NCI-H460 lung. Moreover, the TGI in the assay on OVCAR-4 ovarian is more than 100 µM; in the assay with OVCAR-8 ovarian, 66.1 µM; in the assay with SK-MEL-2 melanoma, 75.8 µM; in the assay with SNB-75 CNS, more than 100 µM.
For the compound `COc1ccc(CNC(=O)c2ccc(-c3cc(-c4nnc(C)o4)ccc3C)cc2)cc1`, the GI50 in the assay on A498 renal was 8.22 µM; in the assay on ACHN renal, 16.3 µM; in the assay with HS 578T breast, more than 25 µM; in the assay with M14 melanoma it was more than 25 µM; in the assay with MDA-MB-231 breast, more than 25 µM; in the assay with NCI-H460 lung, more than 25 µM. Besides, the GI50 was 6.8 µM in the assay with OVCAR-4 ovarian, more than 25 µM in the assay on OVCAR-8 ovarian, more than 25 µM in the assay with SK-MEL-2 melanoma and 14.2 µM in the assay with SNB-75 CNS. The TGI in the assay on A498 renal, with ACHN renal, in the assay with HS 578T breast, with M14 melanoma, in the assay with MDA-MB-231 breast and in the assay with NCI-H460 lung was more than 25 µM in each case. The TGI in the assay with OVCAR-4 ovarian, in the assay with OVCAR-8 ovarian, in the assay with SK-MEL-2 melanoma and in the assay with SNB-75 CNS was more than 25 µM each time.
